Patent publication US20150025034A1, “COMPOSITION FOR CARE AND HYGIENE OF THE AUDITORY CANAL” (LABORATOIRES GILBERT, priority 2012, published 2015)

Assay: In vitro assessment of the cerumenolytic effect on plugs of human cerumen
Conditions: 1 ml per 30 mg plug, 1 hour incubation, 37° C.
Experimental: The activity was assessed through the loss of weight of the plugs of cerumen caused by the dissolution of part of this plug, or more precisely the loss was calculated between the initial dry weight and the remaining dry weight after action of the product in the test.
Reference product: an aerosol spray based on pure sea water (nitrogen propellant), hereinafter referred to as T1, an aerosol spray containing sodium bicarbonate and polysorbate as active principles, hereinafter referred to as T2, and ultrapure water (type 1, Milli-Q water) are used as references. T1 and T2 are commercially available compositions used by way of compositions for the care and hygiene of the auditory channel and judged effective.
12 plugs of human cerumen, to a total weight of 1.55 grams, came from patients from the Ear, Nose and Throat Department of the Saint-Grégoire Hospital (35760). The plugs were mixed in order to obtain a homogeneous plug. […]
The effect sought is the dissolution of the plug. This dissolution is assessed by the loss of weight of the plug between the initial dry weight and the dry weight after incubation. […]
1 ml of composition CE1 and the reference compositions were added separately in previously weighed tubes and put in an oven at 90° C. for 48 hours in order to determine the quantity of dry residues of each composition. […]

Question: For O [pure water, water], which “Dissolution of human cerumen (loss of dry weight of the plug)” value is on record?
Answer: Its value is 51.5%.
